Data taken from patent publication US4617292A, “Pharmaceutical compositions and method for inhibiting histamine release tocopheryl glycoside” (Sunstar Kabushiki Kaisha, priority 1984, dated 1986).
Read-outs that look alike come from different tables or passages of the source.

Key:
[1] = tested on: mast cells; assay: Inhibition of histamine release from mast cells due to an antigen-antibody reaction (in vitro; ovalbumin-sensitized); type: cell-based, Wister male rats; details: Mast cell; rat peritoneal mast cells; antigenic ovalbumin 10^-4 g/ml; 5 min pre-incubation, 10 min incubation at 37° C.; corrected for spontaneous release; read-out: concentration showing 50% inhibition of histamine release
[2] = Acute toxicity (LD50); details: in vivo
[3] = ip, read-out: LD50 values (i.p.)
[4] = po, read-out: LD50 values (p.o.)

Row | SMILES | IC50 [1] | LD50 [2, 3] | LD50 [2, 4]
1 | Cc1c(C)c2c(c(C)c1OC1O[C@H](CO)[C@@H](O)[C@H](O)[C@H]1O)CCC(C)(CCCC(C)CCCC(C)CCCC(C)C)O2 (mixture of isomers) [dl-α-tocopherylglucoside, dl-α-Tocopherylglucoside] | ~50 µg/mL | > 500 mg/kg | > 5000 mg/kg
2 | Cc1c(C)c2c(c(C)c1O[C@@H]1O[C@H](CO)[C@@H](O)[C@H](O)[C@@H]1O)CCC(C)(CCCC(C)CCCC(C)CCCC(C)C)O2 (mixture of isomers) [dl-α-tocopherylmannoside, dl-α-Tocopherylmannoside] | ~15 µg/mL | > 500 mg/kg | > 5000 mg/kg
